Laboratory results published in patent US5075322A, “Selenophen derivatives, a preparation process of the same and therapeutical compositions containing them” (Societe de Conseils de Recherches et d'Applications …, priority 1989, dated 1991).

Tests used:
[1] = system: B.S.A.-induced immune lethality in mice; assay: B.S.A.-induced immune lethality (anaphylactic shock) in actively sensitized mice; type: in vivo
Description: (§1) The different symbols NS, *, ** and *** which may be found in the different tables, mean that the result is respectively not significative, significative, very significative and highly significative.
At the same dose, ketotifen has no effect.

[2] = system: ovalbumine-induced bronchospasm; assay: ovalbumine-induced bronchoconstriction in passively sensitized rats; type: in vivo; details: for Percentage of bronchoconstriction / Percentage of effect: Table IV
Description: as §1

[3] = system: ovalbumine-induced bronchospasm; assay: ovalbumine-induced bronchospasm in anaesthetized passively sensitized guinea-pigs; type: in vivo
Method: In the ovalbumine-induced bronchospasm in anaesthetized passively sensitized guinea-pigs, compound XI and ketotifen, administered 1 hour before the injection of ovalbumine, inhibit the bronchoconstriction (>90%) in a dose-dependant-manner respectively with following ED50 (P.O.)
For both products, the activity disappears at 24 hours.
The kinetic results, after administration by oral route of the said compounds at 0.1 mg/kg and 0.05 mg/kg (P.O.), for 1 to several hours before ovalbumine injection (1 mg/kg), are reported respectively in tables 1 and 2.
as §1

[4] = system: ovalbumine-induced bronchospasm; assay: ovalbumine-induced bronchospasm in actively sensitized guinea pigs; type: in vivo; details: Table III, 0.1 mg/kg PO
Description: as §1

[5] = system: histamine induced bronchospasm; assay: histamine-induced bronchospasm in artificially ventilated anaesthetized guinea pigs; type: in vivo; details: for % of bronchoconstriction / % of effect: Table V, 0.1 mg/kg PO
Method: as §1
The kinetic results of the administration of compound XI and ketotifen by oral route at 0.1 mg/kg (P.O.), 1 to 27 h histamine injection (15 mg IV), are reported in table 5.

rat washed platelets = assay: PAF-induced aggregation of rat washed platelets in vitro; type: cell-based; details: Platelet, PAF 5.10^-10 M
Description: In vitro: effects on aggregation (IC50) induced by PAF (5·10^-10 M), rat washed platelets are as follow: IC50 Compound XI 2.10^-6 M. IC50 Ketotifen 10^-5 M.

PAF induced bronchospasm = assay: PAF-induced bronchospasm in artificially-ventilated anaesthetized guinea pigs; type: in vivo; details: for Percentage of bronchoconstriction / Percentage of effect: Table VII, PAF 60 mg/kg IV
Description: as §1

[6] = system: histamine induced bronchospasm; assay: histamine-induced bronchospasm in artificially ventilated anaesthetized guinea pigs; type: in vivo; details: Cavia porcellus, po; administered 1 hour before histamine (15 mg IV), P.O.; read-out: ED 50 (P.O.)
[7] = Table I, 0.1 mg/kg PO, pretreatment 1 h
[8] = Table I, 0.1 mg/kg PO, pretreatment 3 h
[9] = Table I, 0.1 mg/kg PO, pretreatment 6 h
[10] = Table I, 0.1 mg/kg PO, pretreatment 9 h
[11] = Table I, 0.1 mg/kg PO, pretreatment 15 h
[12] = Table I, 0.1 mg/kg PO, pretreatment 18 h
[13] = Table I, 0.1 mg/kg PO, pretreatment 21 h
[14] = Table I, 0.1 mg/kg PO, pretreatment 24 h
[15] = Table II, 0.05 mg/kg PO, pretreatment 1 h
[16] = Table II, 0.05 mg/kg PO, pretreatment 3 h
[17] = Table II, 0.05 mg/kg PO, pretreatment 6 h
[18] = Table II, 0.05 mg/kg PO, pretreatment 9 h
[19] = Table II, 0.05 mg/kg PO, pretreatment 15 h
[20] = Table II, 0.05 mg/kg PO, pretreatment 18 h
[21] = Table II, 0.05 mg/kg PO, pretreatment 21 h

## c1ccc2c(c1)Sc1ccccc1N2CC1CN2CCC1CC2 (stereo not drawn) [Mequitazine]
[1]; 2.5 mg/kg PO
  Mortality at 24 hours, % of mortality: 30%
  Mortality at 24 hours, % of variation: -51.2%
  Mortality at 24 hours, number of killed: 3/10
[1]; 10 mg/kg PO
  Mortality at 24 hours, % of mortality: 30%
  Mortality at 24 hours, % of variation: -51.2%
  Mortality at 24 hours, number of killed: 3/10

## COc1ccc(CCN2CCC(Nc3nc4ccccc4n3Cc3ccc(F)cc3)CC2)cc1 [Astemizole]
[2]; 5 mg/kg PO
  Percentage of bronchoconstriction: 8.6 ± 2.5%
  Percentage of effect: -76.0%

## CN1CCC(=C2c3ccccc3CC(=O)c3sccc32)CC1 [ketotifen]
[3]; 0.1 mg/kg and 0.05 mg/kg P.O.
  time at which the activity disappears: 24 h
[3]; Cavia porcellus, po, administered 1 hour before ovalbumine, P.O., passively sensitized guinea-pigs, read-out: ED50 (P.O.)
  ED50: 0.0941 µmol/kg
[3]; [7]
  % of bronchoconstriction: 8.3 ± 3.2%
  % of effect: -90.2 ± 3.8%
[3]; [8]
  % of bronchoconstriction: 7.3 ± 3.0%
  % of effect: -88.3 ± 4.8%
[3]; [9]
  % of bronchoconstriction: 31.9 ± 17.9%
  % of effect: -48.8 ± 28.8%
[3]; [10]
  % of bronchoconstriction: 66.9 ± 19.7%
  % of effect: -25.1 ± 22.0%
[3]; [11]
  % of bronchoconstriction: 77.5 ± 10.6%
  % of effect: -5.9 ± 13.3%
[3]; [12]
  % of bronchoconstriction: 54.0 ± 18.6%
  % of effect: -44.3 ± 19.2%
[3]; [13]
  % of bronchoconstriction: 88.3 ± 7.6%
  % of effect: -8.8 ± 7.9%
[3]; [14]
  % of bronchoconstriction: 67.3 ± 15.0%
  % of effect: +8.3 ± 24.0%
[3]; [15]
  % of bronchoconstriction: 44.9 ± 15.9%
  % of effect: -49.2%
[3]; [16]
  % of bronchoconstriction: 5.7 ± 1.7%
  % of effect: -93.6%
[3]; [17]
  % of bronchoconstriction: 82.9 ± 14.0%
  % of effect: -14.3%
[3]; [18]
  % of bronchoconstriction: 80.3 ± 19.7%
  % of effect: -17.1%
[3]; [19]
  % of bronchoconstriction: 64.3 ± 18.3%
  % of effect: -2.4%
[3]; [20]
  % of bronchoconstriction: 100 ± 0%
  % of effect: +2.0%
[3]; [21]
  % of bronchoconstriction: 94.4 ± 3.2%
  % of effect: -3.2%
[3]; administered 1 hour before ovalbumine, P.O., dose-dependent
  inhibition of bronchoconstriction: > 90%
[4]; pretreatment 1 h
  % of bronchoconstriction: 3.6 ± 1.2%
  % of effect: -95.8 ± 1.4%
[4]; pretreatment 3 h
  % of bronchoconstriction: 3.3 ± 0.5%
  % of effect: -95.6 ± 0.7%
[4]; pretreatment 6 h
  % of bronchoconstriction: 42.1 ± 19.3%
  % of effect: -43.9 ± 25.8%
[4]; pretreatment 9 h
  % of bronchoconstriction: 83.2 ± 16.1%
  % of effect: -8.8 ± 17.6%
[4]; pretreatment 15 h
  % of bronchoconstriction: 77.5 ± 14.8%
  % of effect: -9.0 ± 17.4%
[4]; pretreatment 18 h
  % of bronchoconstriction: 64.5 ± 19.5%
  % of effect: +17.9 ± 35.7%
[4]; pretreatment 21 h
  % of bronchoconstriction: 73.6 ± 15.5%
  % of effect: +34.4 ± 28.5%
[2]; 0.1 mg/kg PO
  Percentage of bronchoconstriction: 24.7 ± 5.1%
  Percentage of effect: -31.0%
[2]; 1 mg/kg PO
  Percentage of bronchoconstriction: 46.3 ± 11.0%
  Percentage of effect: +29.3%
[2]; passively sensitized rats
  inhibition of bronchoconstriction (in words): has no effect
[5]; 1 h
  % of bronchoconstriction: 2.1 ± 0.8%
  % of effect: -97.4 ± 1.0%
[5]; 3 h
  % of bronchoconstriction: 0%
  % of effect: -100 ± 0%
[5]; 6 h
  % of bronchoconstriction: 18.2 ± 13.3%
  % of effect: -77.8 ± 16.2%
[5]; 9 h
  % of bronchoconstriction: 22.1 ± 14.1%
  % of effect: -71.5 ± 14.1%
[5]; 15 h
  % of bronchoconstriction: 51.4 ± 16.7%
  % of effect: -26.9 ± 16.7%
[5]; 18 h
  % of bronchoconstriction: 54.6 ± 13.3%
  % of effect: -39.8 ± 14.8%
[5]; 21 h
  % of bronchoconstriction: 46.6 ± 14.9%
  % of effect: -44.9 ± 17.6%
[5]; 24 h
  % of bronchoconstriction: 63.7 ± 15.1%
  % of effect: -3.0 ± 23.1%
[5]; 27 h
  % of bronchoconstriction: 83.4 ± 5.9%
[5]; administered 1 hour before histamine (15 mg IV)
  inhibition of bronchoconstriction (in words): inhibit significantly the bronchoconstriction in a dose-dependant-manner
[5]; during only the first hours, 0.1 mg/kg P.O.
  duration of maximum effect: 3 h
[1]; 0.250 mg/kg PO
  Mortality at 24 hours, % of mortality: 50%
  Mortality at 24 hours, % of variation: -18.7%
  Mortality at 24 hours, number of killed: 5/10
[1]; 0.275 mg/kg P.O.
  protective effect (in words): has no effect
[1]; 0.500 mg/kg PO
  Mortality at 24 hours, % of mortality: 40%
  Mortality at 24 hours, % of variation: -35%
  Mortality at 24 hours, number of killed: 4/10
Rat washed platelets
  IC50: 10 µM
PAF induced bronchospasm; 1 hour before PAF, 0.1 mg/kg
  inhibition of PAF induced bronchospasm (in words): less active
PAF induced bronchospasm; 0.1 mg/kg PO
  Percentage of bronchoconstriction: 63.5 ± 9.6%
  Percentage of effect: -18.9%
PAF induced bronchospasm; 1 mg/kg PO
  Percentage of bronchoconstriction: 26.2 ± 14.8%
  Percentage of effect: -66.5%
[6]
  ED50: 0.0635 µmol/kg
